Laboratory results reported in the supplement of paper PMC10702517.
± gives the standard deviation.

What was measured:
[1] = chemical recovery from spiked human plasma; higher = better extraction; details: pooled human plasma
[2] = chemical recovery by SPE of plasma after PDMS sampling; higher = better extraction; details: pooled human plasma, extraction method: HLB SPE of plasma after PES
[3] = chemical recovery into PDMS from spiked human plasma; higher = better extraction; details: pooled human plasma, extraction method: PES with PDMS
[4] = extraction method: SPE only (HLB 96-well)
[5] = extraction method: SPE only (HLB 96-well), PES comparison experiment
[6] = extraction method: solvent precipitation (ACN + hexane)
[7] = extraction method: PES+SPE (3 d PDMS equilibration then HLB SPE)
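Wherever chemical recovery by SPE of plasma after PDMS sampling is given: over 400 spiked chemicals quantified by LC-HRMS or GC-HRMS via internal standard calibration, recovery relative to spike mix added to unspiked plasma extract to correct matrix effects.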

Structure (SMILES)	chemical recovery [1, 4] [%]	chemical recovery [1, 5] [%]	chemical recovery [1, 6] [%]	chemical recovery by SPE of plasma ([2]; equilibration time (d): 1) [%]	chemical recovery by SPE of plasma ([2]; equilibration time (d): 3) [%]	chemical recovery by SPE of plasma ([2]; equilibration time (d): 6) [%]	chemical recovery into PDMS ([3]; equilibration time (d): 1) [%]	chemical recovery into PDMS ([3]; equilibration time (d): 3) [%]	chemical recovery into PDMS ([3]; equilibration time (d): 6) [%]	chemical recovery [1, 7] [%]
CN(C/C=C/C#CC(C)(C)C)Cc1cccc2ccccc12 [Terbinafine]	46.4 ± 1	50 ± 10	86.4 ± 13	0.265 ± 0.18	0.2 ± 0.089	0.0441 ± 0.0079	0.00204 ± 0.0035	0.065 ± 0.1	0.00509 ± 0.0088	
CCNc1nc(Cl)nc(NC(C)(C)C)n1 [Terbuthylazine]	61.8 ± 2.3	45.8 ± 8	69.5 ± 7.1	1.41 ± 0.15	1.28 ± 0.32	0.724 ± 0.021	37 ± 1	41.3 ± 3.5	41.4 ± 1.7	64.8 ± 10
CCNc1nc(NC(C)(C)C)nc(SC)n1 [Terbutryn]	46.2 ± 2.5	48.2 ± 6.7	68.8 ± 3.2	1.3 ± 0.11	1.01 ± 0.25	0.516 ± 0.03	21.7 ± 8.2	21.5 ± 6.8	22.9 ± 3.2	
C[C@]12CC[C@H]3[C@@H](CCC4=CC(=O)CC[C@@]43C)[C@@H]1CC[C@@H]2O [Testosterone]		52.8 ± 8.8		16 ± 3.3	14.5 ± 1.6	8.83 ± 2.7	29.7 ± 1.9	35.7 ± 2.2	35.6 ± 0.61	
NC(=O)/N=C1\SCCN1Cc1ccc(Cl)nc1 [Thiacloprid amide]	33.6 ± 3.3	51.2 ± 7	78 ± 3.3	51.1 ± 5.3	53.4 ± 4.1	47 ± 2.8	2.46 ± 0.75	4 ± 1.4	4.83 ± 0.88	42.5 ± 3.4
N#C/N=C1\SCCN1Cc1ccc(Cl)nc1 [Thiacloprid]	43.4 ± 3.5	55.7 ± 4.2	79.2 ± 2.9	39.3 ± 6	33.4 ± 2.5	25.1 ± 4.8	18.1 ± 1.4	26.3 ± 4.2	29.8 ± 2.2	55.5 ± 5.8
CC(=O)c1cc2c(cc1C)C(C)(C)C(C)CC2(C)C (configuration not stated) [Tonalide]	17.1 ± 5	22.3 ± 6.1		0.526 ± 0.91			49 ± 3.7	48.1 ± 5.2	55.1 ± 2.9	41.1 ± 12
O=C(Nc1ccc(Cl)cc1)Nc1ccc(Cl)c(Cl)c1 [Triclocarban]	35 ± 5	25.7 ± 4.4	55.4 ± 4.4	29.8 ± 8.2	28.2 ± 4.9	24.3 ± 4	5.9 ± 0.44	7.7 ± 0.6	8.27 ± 0.72	
Oc1cc(Cl)ccc1Oc1ccc(Cl)cc1Cl [Triclosan]	34.5 ± 1.1	40.3 ± 7.5	40 ± 3.5	24.8 ± 8.3	23.5 ± 2	20.2 ± 3.3	16 ± 1.1	21 ± 0.84	22 ± 1.5	49.8 ± 4.3
CCOC(=O)CC(O)(CC(=O)OCC)C(=O)OCC [Triethylcitrate]	38.1 ± 0.71	43.2 ± 5		18.1 ± 0.54	26.1 ± 4.4	17 ± 1.2	23.6 ± 0.89	23.1 ± 3.8	26.2 ± 2.7	32.4 ± 8.6
CCOP(=O)(OCC)OCC [Triethylphosphate]	18.9 ± 3.4	16.6 ± 7.5		12.1 ± 7	15.8 ± 2.1	6.74 ± 1.1			15 ± 4.8	
O=P(c1ccccc1)(c1ccccc1)c1ccccc1 [Triphenylphosphine oxide]	54.9 ± 1.4	51.6 ± 7.2		8.28 ± 1.2	8.53 ± 0.92	6.26 ± 0.28	41 ± 1.5	44.6 ± 2.8	43.5 ± 1.5	58.6 ± 6.1
CCCOP(=O)(OCCC)OCCC [Tripropyl phosphate]	35 ± 7.1	26.4 ± 7.2		1.52 ± 1	1.74 ± 0.42	1.1 ± 0.16	29.8 ± 6.3	35.3 ± 6.6	33.8 ± 2.4	
CC(CCl)OP(=O)(OC(C)CCl)OC(C)CCl (configuration not stated) [Tris(1-chloro-2-propyl)phosphate]		55 ± 8.9			1.7 ± 2	3.1 ± 2.4	34.1 ± 1.8	44.3 ± 3.9	43.7 ± 3.3	
O=P(OCCCl)(OCCCl)OCCCl [Tris(2-chloroethyl)phosphate]	47.4 ± 2.1	52.3 ± 5.5	69.9 ± 2.8	15 ± 1.6	15 ± 1.8	9.84 ± 0.88	37.5 ± 1.4	39.8 ± 1.5	40.8 ± 2.8	52.1 ± 4.5
O=C1CCCC=CCCCCCCCCCC1 [Velvione]	0.134 ± 0.12			1.02 ± 7.1			41.7 ± 2.9	43.1 ± 12	40.2 ± 13	
c1ccc(-c2cccc(-c3ccccc3)c2)cc1 [m-Terphenyl]	0.761 ± 0.18	2.42 ± 4.8	34.3 ± 1.4	1.91 ± 3.3	2.9 ± 2.5	2.74 ± 2.4	90.2 ± 24	86.8 ± 18	101 ± 37	
c1ccc(-c2ccccc2-c2ccccc2)cc1 [o-Terphenyl]	12.9 ± 2.8	19.9 ± 5.7		2.44 ± 1.2	2.46 ± 0.63	2.62 ± 0.75	81.9 ± 26	81.5 ± 8.2	88.8 ± 18	
Cc1ccccc1N [o-Toluidine]	6.06 ± 3.9	6.06 ± 5.9	17.2 ± 2.6	4.67 ± 6.8	1.92 ± 0.63	1.2 ± 0.91	0.669 ± 0.41	0.533 ± 0.3	0.369 ± 0.35	
Cc1ccc(S(N)(=O)=O)cc1 [p-Toluenesulfonamide]			77.9 ± 3.1	51.8 ± 5.5	55.4 ± 4.7	52.8 ± 0.84	2.17 ± 0.29	1.8 ± 0.5	2.08 ± 0.47	
